Test results taken from paper PMC9871843 (Clinical Kidney Journal, 2022).

Assay: Safety and tolerability
Format: in vivo, healthy participants (human)
Details: healthy adults, single oral dose
[1] = safety analysis set, by system organ class

## C=CC[C@@H]1/C=C(\C)C[C@H](C)C[C@H](OC)[C@H]2O[C@@](O)(C(=O)C(=O)N3CCCC[C@H]3C(=O)O[C@H](/C(C)=C/[C@@H]3CC[C@@H](O)[C@H](OC)C3)[C@H](C)[C@@H](O)CC1=O)[C@H](C)C[C@@H]2OC [Tacrolimus, tacrolimus]
  participants in whom adverse events were reported: seven
Safety analysis set, N as in column head
  Participants with any AE: 7 (22.6) n (%)
[1]
  Participants with AEs: Cardiac disorders: 0 n (%)
  Participants with AEs: Eye disorders: 1 (3.2) n (%)
  Participants with AEs: Gastrointestinal disorders: 2 (6.5) n (%)
  Participants with AEs: General disorders and administration site conditions: 1 (3.2) n (%)
  Participants with AEs: Infections and infestations: 0 n (%)
  Participants with AEs: Injury, poisoning and procedural complications: 1 (3.2) n (%)
  Participants with AEs: Musculoskeletal and connective tissue disorders: 1 (3.2) n (%)
  Participants with AEs: Nervous system disorders: 3 (9.7) n (%)
  Participants with AEs: Renal and urinary disorders: 0 n (%)
  Participants with AEs: Respiratory, thoracic and mediastinal disorders: 0 n (%)
